How the values were obtained:
Aromatase = target: T1, Aromatase (Homo sapiens, UniProt P11511); assay: Aromatase activity in JEG3 choriocarcinoma cells (Protocol 6); type: cell-based; conditions: JEG3 cells
T1 construct: host or cells: JEG3 choriocarcinoma cells (intact monolayers)
T1 sequence (P11511 1-503): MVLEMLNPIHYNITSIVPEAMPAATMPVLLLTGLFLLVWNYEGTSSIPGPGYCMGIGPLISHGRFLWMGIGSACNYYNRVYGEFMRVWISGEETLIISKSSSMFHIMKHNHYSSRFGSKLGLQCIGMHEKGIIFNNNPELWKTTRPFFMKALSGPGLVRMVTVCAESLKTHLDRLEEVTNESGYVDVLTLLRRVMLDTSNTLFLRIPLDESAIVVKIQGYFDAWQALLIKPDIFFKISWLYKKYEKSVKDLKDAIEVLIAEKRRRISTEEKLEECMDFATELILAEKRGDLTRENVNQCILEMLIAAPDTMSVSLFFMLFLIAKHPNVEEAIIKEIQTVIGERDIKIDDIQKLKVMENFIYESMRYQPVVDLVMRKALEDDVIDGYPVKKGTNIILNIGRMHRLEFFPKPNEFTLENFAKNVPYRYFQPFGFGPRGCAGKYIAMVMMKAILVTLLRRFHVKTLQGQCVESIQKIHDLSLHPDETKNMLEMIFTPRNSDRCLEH
Experimental: Aromatase activity is measured in JEG3 choriocarcinoma cells, obtained from the ATCC.
During the aromatase reaction, ^3H2O is liberated which can be quantified using a liquid scintillation spectrometer (Beckman-Coulter, High Wycombe, Bucks. UK). […] The number of cell nuclei per flask is determined using a Coulter Counter after treating the cell monolayers with Z aponin.
Unpaired Student's t test was used to test the statistical significance of results.
(§1) A number of compounds were tested for aromatase and steroid sulphatase inhibition in accordance with the above Protocols 1 and 6.

steroid sulphatase (STS) = target: T2, steroid sulphatase (STS) (Homo sapiens, UniProt P08842); assay: Inhibition of steroid sulphatase activity in intact JEG3 cells (Protocol 1); type: cell-based; conditions: for IC50: JEG3 cells
T2 construct: host or cells: JEG3 choriocarcinoma cells (intact monolayers)
T2 sequence (P08842 22-583): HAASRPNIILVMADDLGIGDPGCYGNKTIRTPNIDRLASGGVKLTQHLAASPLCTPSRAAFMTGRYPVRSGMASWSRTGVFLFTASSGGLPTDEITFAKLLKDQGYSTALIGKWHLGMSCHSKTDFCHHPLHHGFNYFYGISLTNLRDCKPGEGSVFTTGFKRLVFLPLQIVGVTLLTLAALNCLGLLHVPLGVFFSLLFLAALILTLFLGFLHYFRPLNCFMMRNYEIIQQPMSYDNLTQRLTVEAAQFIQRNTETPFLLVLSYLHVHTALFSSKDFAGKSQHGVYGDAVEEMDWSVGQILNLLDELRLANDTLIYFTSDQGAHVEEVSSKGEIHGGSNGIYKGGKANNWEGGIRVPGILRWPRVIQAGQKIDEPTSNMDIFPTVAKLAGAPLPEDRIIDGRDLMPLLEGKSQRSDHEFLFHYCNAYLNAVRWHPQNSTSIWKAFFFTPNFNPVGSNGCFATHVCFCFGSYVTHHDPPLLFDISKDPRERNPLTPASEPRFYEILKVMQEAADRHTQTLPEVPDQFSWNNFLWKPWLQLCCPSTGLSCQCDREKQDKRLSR
Experimental: Inhibition of Steroid Sulphatase Activity in JEG3 cells
Steroid sulphatase activity is measured in vitro using intact JEG3 choriocarcinoma cells. This cell line may be used to study the control of human breast cancer cell growth.
Cells are maintained in Minimal Essential Medium (MEM) (Flow Laboratories, Irvine, Scotland) containing 20 mM HEPES, 5% foetal bovine serum, 2 mM glutamine, non-essential amino acids and 0.075% sodium bicarbonate. Up to 30 replicate 25 cm^2 tissue culture flasks are seeded with approximately 1×10^5 cells/flask using the above medium. Cells are grown to 80% confluency and the medium is changed every third day.
Intact monolayers of JEG3 cells in triplicate 25 cm^2 tissue culture flasks are washed with Earle's Balanced Salt Solution (EBSS from ICN Flow, High Wycombe, U.K.) and incubated for 3-4 hours at 37° C. with 5 pmol (7×10^5 dpm) [6, 7-3H]oestrone-3-sulphate (specific activity 60 Ci/mmol from New England Nuclear, Boston, Mass., U.S.A.) in serum-free MEM (2.5 ml) together with oestrone-3-sulphamate (11 concentrations: 0; 1fM; 0.01 pM; 0.1 pM; 1 pM; 0.01 nM; 0.1 nM; 1 nM; […]). After incubation each flask is cooled and the medium (1 ml) is pipetted into separate tubes containing [14C]oestrone (7×10^3 dpm) (specific activity 97 Ci/mmol from Amersham International Radiochemical Centre, Amersham, U.K.). The mixture is shaken thoroughly for 30 seconds with toluene (5 ml). Experiments have shown that >90% [14C]oestrone and <0.1% [3H]oestrone-3-sulphate is removed from the aqueous phase by this treatment. A portion (2 ml) of the organic phase is removed, evaporated and the 3H and 14C content of the residue determined by scintillation spectrometry. The mass of oestrone-3-sulphate hydrolysed was calculated from the 3H counts obtained (corrected for the volumes of the medium and organic phase used, and for recovery of [14C]oestrone added) and the specific activity of the substrate. Each batch of experiments includes incubations of microsomes prepared from a sulphatase-positive human placenta (positive control) and flasks without cells (to assess apparent non-enzymatic hydrolysis of the substrate). The number of cell nuclei per flask is determined using a Coulter Counter after treating the cell monolayers with Zaponin. One flask in each batch is used to assess cell membrane status and viability using the Trypan Blue exclusion method (Phillips, H. J. (1973) In: Tissue culture and applications, [eds: Kruse, D. F. & Patterson, M. K.]; pp. 406-408; Academic Press, New York).
Results for steroid sulphatase activity are expressed as the mean±1 S.D. of the total product (oestrone+oestradiol) formed during the incubation period (3-4 hours) calculated for […] and, for values showing statistical significance, as a percentage reduction (inhibition) over incubations containing no oestrone-3-sulphamate. Unpaired Student's t-test was used to test the statistical significance of results.
as §1

steroid sulphatase = target: T3, steroid sulphatase (Homo sapiens, UniProt P08842); conditions: cited from earlier work
T3 sequence (P08842 22-583): T2 sequence (P08842 22-583)

rats = conditions: cited from earlier work
[1] = cited from earlier work
E1-STS = target: T4, E1-STS (Homo sapiens, UniProt P08842); conditions: at 0.1 nM; cited from earlier work
T4 construct: host or cells: intact MCF-7 cells (endogenous enzyme)
T4 sequence (P08842 22-583): T2 sequence (P08842 22-583)

IC50 (Aromatase) [nM]	SMILES	IC50 (steroid sulphatase (STS)) [nM]	other results
–	N#Cc1ccc(Cn2cncn2)cc1-c1ccc(OS(N)(=O)=O)c(Cl)c1 [Compound 23, 5′-((1H-1,2,4-triazol-1-yl)methyl)-3-chloro-2′-cyanobiphenyl-4-yl sulfamate]	< 1000	–
< 1000	N#Cc1cc(Cn2cncn2)cc(-c2ccc(OS(N)(=O)=O)c(Cl)c2)c1 [Compound 40, 3′-((1H-1,2,4-triazol-1-yl)methyl)-3-chloro-5′-cyanobiphenyl-4-yl sulfamate]	< 10000	–
–	COc1cc2c(cc1OS(N)(=O)=O)CC[C@@H]1[C@@H]2CC[C@]2(C)C(=O)CC[C@@H]12 [2-methoxyoestrone-3-O-sulphamate]	–	potency as a steroid sulphatase inhibitor compared with EMATE (steroid sulphatase): equipotent with EMATE; oestrogenicity (rats; rat, in vivo): devoid of oestrogenicity
< 1000	N#Cc1cc(Cn2cncn2)ccc1-c1ccc(OS(N)(=O)=O)cc1 [Compound 48, 4′-((1H-1,2,4-triazol-1-yl)methyl)-2′-cyanobiphenyl-4-yl sulfamate]	< 1000	–
< 1000	N#Cc1ccc(-c2ccc(OS(N)(=O)=O)c(Cl)c2)cc1Cn1cncn1 [Compound 33, 3′-((1H-1,2,4-triazol-1-yl)methyl)-3-chloro-4′-cyanobiphenyl-4-yl sulfamate]	< 1000	melting point: 155 to 158 °C
< 1000	N#Cc1ccc(Cn2cncn2)cc1-c1ccc(OS(N)(=O)=O)cc1 [Compound 20, 5′-((1H-1,2,4-triazol-1-yl)methyl)-2′-cyanobiphenyl-4-yl sulfamate]	< 1000	–
< 1000	CC(C)(C#N)c1cc(Cn2cncn2)cc(-c2ccc(OS(N)(=O)=O)c(Cl)c2)c1 [Compound 58, 3′-((1H-1,2,4-triazol-1-yl)methyl)-3-chloro-5′-(2-cyanopropan-2-yl)biphenyl-4-yl sulfamate]	–	JEG3-cells STS, % at single concentration (steroid sulphatase (STS); @ 10 μM): 68.2 ± 1.6% @ 10 μM; melting point: 71 to 74 °C
< 1000	N#Cc1ccc(-c2ccc(OS(N)(=O)=O)cc2)cc1Cn1cncn1 [Compound 31, 3′-((1H-1,2,4-triazol-1-yl)methyl)-4′-cyanobiphenyl-4-yl sulfamate]	< 1000	melting point: 179 to 180 °C
< 1000	N#Cc1cc(Cn2cncn2)ccc1-c1ccc(OS(N)(=O)=O)c(Cl)c1 [Compound 50, 4′-((1H-1,2,4-triazol-1-yl)methyl)-3-chloro-2′-cyanobiphenyl-4-yl sulfamate]	< 1000	–
–	C[C@]12CC[C@@H]3c4ccc(OS(=O)(=O)O)cc4CC[C@H]3[C@@H]1CCC2=O [E1S, oestrone sulphate]	–	half-life in blood [1]: 10 to 12 h
–	CC12CCC3c4ccc(OS(N)(=O)=O)cc4CCC3C1CCC2=O (stereo not drawn) [EMATE, oestrone-3-sulphamate]	–	oral uterotrophic activity in rats relative to estradiol (rats; oral, rats, versus estradiol): 100 times; inhibition of E1-STS activity in intact MCF-7 cells (E1-STS): more than 99%
–	NS(=O)(=O)Oc1ccc(C#Cc2cccc(Cn3cncn3)c2)cc1Cl [compound 2054]	< 1000	–

SMILES	IC50 (Aromatase) [nM]	IC50 (steroid sulphatase (STS)) [nM]	other results
NS(=O)(=O)Oc1ccc(-c2cccc(Cn3cncn3)c2)cc1Cl [compound 1854]	< 1000	< 1000	–
NS(=O)(=O)Oc1ccc(-c2ccc(Cn3cncn3)cc2)cc1 [compound 1976]	< 10000	< 10000	–
NS(=O)(=O)Oc1cccc(-c2cccc(Cn3cncn3)c2)c1 [compound 1848]	< 1000	< 10000	–
NS(=O)(=O)Oc1ccc(SCc2ccc(Cn3cncn3)cc2)cc1Cl [compound 1980]	< 1000	< 1000	–
NS(=O)(=O)Oc1ccc(-c2cccc(Cn3cncn3)c2)cc1 [compound 1455]	< 1000	< 10000	–
NS(=O)(=O)Oc1ccc(SCc2cccc(Cn3cncn3)c2)cc1Cl [compound 1979]	< 1000	< 1000	–
